These results are taken from ChEMBL document CHEMBL5316327, “Design and Synthesis of Orally Active Quinolyl Pyrazinamides as Sigma 2 Receptor Ligands for the Treatment of Pancreatic Cancer” (J Med Chem, 2023).

The Ki is a measure of affinity in units of concentration, obtained from inhibition or displacement. The term half-life denotes the time in which the quantity being followed falls by half.

Some results are limits rather than exact numbers.

Data set [1] concerns the target Muscarinic acetylcholine receptor M2 (Homo sapiens, UniProt P08172). Put plainly: Binding affinity to M2 receptor (unknown origin) assessed as inhibition constant.
In data set [2] the target is Muscarinic acetylcholine receptor M5 (Homo sapiens, UniProt P08912). As to the kind of experiment: Binding affinity to M5 receptor (unknown origin) assessed as inhibition constant.
Data set [3] in a line: Metabolic stability in human liver microsomes assessed as half life at 10 uM measured upto 60 mins in presence of NADPH by LC-MS/MS analysis. It is filed as ADME, Microsome. Conditions: liver microsomes. A general note: Liver microsomes are vesicles of endoplasmic reticulum, rich in cytochrome P450 enzymes.
For data set [4], the target named is Muscarinic acetylcholine receptor M1 (Homo sapiens, UniProt P11229). Put plainly: Binding affinity to M1 receptor (unknown origin) assessed as inhibition constant.
The next data set concerns the target Histamine H2 receptor (Homo sapiens, UniProt P25021). Put plainly: Binding affinity to histamine H2 receptor (unknown origin) assessed as inhibition constant.
The nature of data set [5]: Metabolic stability in mouse liver microsomes assessed as half life at 10 uM measured upto 60 mins in presence of NADPH by LC-MS/MS analysis. The data set is classed as ADME, Microsome. Particulars: 1 h.
A further data set concerns the target D(1A) dopamine receptor (Homo sapiens, UniProt P21728). Put plainly: Binding affinity to dopamine D1 receptor (unknown origin) assessed as inhibition constant.
The target of data set [6] is 5-hydroxytryptamine receptor 1D (Homo sapiens, UniProt P28221). Put plainly: Binding affinity to 5-HT1D receptor (unknown origin) assessed as inhibition constant.
Data set [7] has as its target Sigma intracellular receptor 2 (Homo sapiens, UniProt Q5BJF2). As to the kind of experiment: Displacement of [3H][…]ditolylguanidine from human sigma 2 receptor transfected in human HEK293T cells assessed as inhibition constant by radioligand competition binding assay. The data set is classed as cell-based. Background: In a radioligand displacement assay an active substance lowers the binding of a labelled ligand.

The target of data set [8] is Sigma non-opioid intracellular receptor 1 (Homo sapiens, UniProt Q99720). Put plainly: Displacement of [3H](+)-pentazocine from human sigma 1 receptor transfected in human HEK293T cells assessed as inhibition constant by radioligand competition binding assay. It is filed as cell-based.
Another data set has as its target Histamine H3 receptor (Homo sapiens, UniProt Q9Y5N1). Put plainly: Binding affinity to histamine H3 receptor (unknown origin) assessed as inhibition constant.
For data set [9], the target named is Alpha-2B adrenergic receptor (Homo sapiens, UniProt P18089). Put plainly: Binding affinity to alpha2B receptor (unknown origin) assessed as inhibition constant.
The next data set deals with D(3) dopamine receptor (Homo sapiens, UniProt P35462). Put plainly: Binding affinity to dopamine D3 receptor (unknown origin) assessed as inhibition constant.
The target of data set [10] is Kappa-type opioid receptor (Homo sapiens, UniProt P41145). Put plainly: Binding affinity to KOR receptor (unknown origin) assessed as inhibition constant.
The target in a further data set is D(1B) dopamine receptor (Homo sapiens, UniProt P21918). Put plainly: Binding affinity to dopamine D5 receptor (unknown origin) assessed as inhibition constant.
Data set [11] concerns the target Muscarinic acetylcholine receptor M4 (Homo sapiens, UniProt P08173). Put plainly: Binding affinity to M4 receptor (unknown origin) assessed as inhibition constant.
Data set [12] deals with Alpha-2A adrenergic receptor (Homo sapiens, UniProt P08913). Put plainly: Binding affinity to alpha2A receptor (unknown origin) assessed as inhibition constant.
For data set [13], the target named is 5-hydroxytryptamine receptor 2B (Homo sapiens, UniProt P41595). As to the kind of experiment: Binding affinity to 5-HT2B receptor (unknown origin) assessed as inhibition constant.
Data set [14] concerns the target 5-hydroxytryptamine receptor 1A (Homo sapiens, UniProt P08908). Put plainly: Binding affinity to 5-HT1A receptor (unknown origin) assessed as inhibition constant.
The target in data set [15] is Muscarinic acetylcholine receptor M3 (Homo sapiens, UniProt P20309). Put plainly: Binding affinity to M3 receptor (unknown origin) assessed as inhibition constant.
Chain of Muscarinic acetylcholine receptor M3 (P20309 whole entry): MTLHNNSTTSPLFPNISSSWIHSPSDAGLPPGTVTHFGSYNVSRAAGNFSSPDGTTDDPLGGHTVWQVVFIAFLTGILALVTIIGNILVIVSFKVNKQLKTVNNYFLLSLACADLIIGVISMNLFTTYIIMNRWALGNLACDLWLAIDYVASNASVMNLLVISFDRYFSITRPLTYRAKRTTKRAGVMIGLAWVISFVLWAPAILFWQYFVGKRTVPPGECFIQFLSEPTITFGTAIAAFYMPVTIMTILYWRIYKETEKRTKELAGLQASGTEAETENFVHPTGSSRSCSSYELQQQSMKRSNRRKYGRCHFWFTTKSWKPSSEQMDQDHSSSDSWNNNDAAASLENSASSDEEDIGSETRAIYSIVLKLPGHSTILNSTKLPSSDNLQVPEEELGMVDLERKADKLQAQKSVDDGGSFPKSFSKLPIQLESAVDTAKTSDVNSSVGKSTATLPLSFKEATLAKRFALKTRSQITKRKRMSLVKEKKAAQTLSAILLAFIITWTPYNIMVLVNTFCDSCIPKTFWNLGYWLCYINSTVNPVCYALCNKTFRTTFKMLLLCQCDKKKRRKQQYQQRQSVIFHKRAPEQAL

Chain of 5-hydroxytryptamine receptor 1A (P08908 whole entry): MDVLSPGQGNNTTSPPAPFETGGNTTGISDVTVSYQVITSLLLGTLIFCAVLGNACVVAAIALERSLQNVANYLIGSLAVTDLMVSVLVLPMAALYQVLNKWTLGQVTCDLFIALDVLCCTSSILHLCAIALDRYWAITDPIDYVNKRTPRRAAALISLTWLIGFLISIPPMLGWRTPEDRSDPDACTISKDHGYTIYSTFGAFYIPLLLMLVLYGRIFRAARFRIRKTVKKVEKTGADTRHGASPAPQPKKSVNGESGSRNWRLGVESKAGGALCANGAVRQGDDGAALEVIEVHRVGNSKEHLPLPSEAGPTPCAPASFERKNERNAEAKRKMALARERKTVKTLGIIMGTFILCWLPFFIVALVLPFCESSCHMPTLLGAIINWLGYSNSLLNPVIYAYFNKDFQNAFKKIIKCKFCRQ
Chain of Muscarinic acetylcholine receptor M4 (P08173 whole entry): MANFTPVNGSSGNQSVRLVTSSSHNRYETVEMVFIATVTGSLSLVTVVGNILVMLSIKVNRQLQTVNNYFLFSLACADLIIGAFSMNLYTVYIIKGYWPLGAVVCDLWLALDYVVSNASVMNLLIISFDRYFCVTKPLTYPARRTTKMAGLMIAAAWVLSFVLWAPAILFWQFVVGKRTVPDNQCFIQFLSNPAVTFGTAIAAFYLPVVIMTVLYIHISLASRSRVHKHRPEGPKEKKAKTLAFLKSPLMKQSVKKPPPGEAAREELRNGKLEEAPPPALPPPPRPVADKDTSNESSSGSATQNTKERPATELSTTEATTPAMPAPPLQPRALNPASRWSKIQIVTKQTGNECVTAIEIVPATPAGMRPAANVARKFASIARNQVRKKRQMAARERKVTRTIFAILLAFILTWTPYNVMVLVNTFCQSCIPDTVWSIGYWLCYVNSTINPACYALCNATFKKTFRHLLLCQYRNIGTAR
Chain of Alpha-2A adrenergic receptor (P08913 whole entry): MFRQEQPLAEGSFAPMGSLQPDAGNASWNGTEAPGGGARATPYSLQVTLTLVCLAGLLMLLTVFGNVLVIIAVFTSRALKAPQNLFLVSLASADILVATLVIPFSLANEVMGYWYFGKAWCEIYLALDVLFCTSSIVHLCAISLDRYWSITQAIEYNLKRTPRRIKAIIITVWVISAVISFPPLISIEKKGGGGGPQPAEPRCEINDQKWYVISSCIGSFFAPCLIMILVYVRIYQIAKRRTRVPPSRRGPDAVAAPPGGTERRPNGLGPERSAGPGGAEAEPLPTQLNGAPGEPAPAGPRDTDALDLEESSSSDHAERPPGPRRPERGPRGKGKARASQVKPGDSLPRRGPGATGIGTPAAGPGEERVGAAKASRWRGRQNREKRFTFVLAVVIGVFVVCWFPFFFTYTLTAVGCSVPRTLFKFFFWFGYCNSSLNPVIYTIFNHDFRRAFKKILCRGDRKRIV
Chain of Muscarinic acetylcholine receptor M5 (P08912 whole entry): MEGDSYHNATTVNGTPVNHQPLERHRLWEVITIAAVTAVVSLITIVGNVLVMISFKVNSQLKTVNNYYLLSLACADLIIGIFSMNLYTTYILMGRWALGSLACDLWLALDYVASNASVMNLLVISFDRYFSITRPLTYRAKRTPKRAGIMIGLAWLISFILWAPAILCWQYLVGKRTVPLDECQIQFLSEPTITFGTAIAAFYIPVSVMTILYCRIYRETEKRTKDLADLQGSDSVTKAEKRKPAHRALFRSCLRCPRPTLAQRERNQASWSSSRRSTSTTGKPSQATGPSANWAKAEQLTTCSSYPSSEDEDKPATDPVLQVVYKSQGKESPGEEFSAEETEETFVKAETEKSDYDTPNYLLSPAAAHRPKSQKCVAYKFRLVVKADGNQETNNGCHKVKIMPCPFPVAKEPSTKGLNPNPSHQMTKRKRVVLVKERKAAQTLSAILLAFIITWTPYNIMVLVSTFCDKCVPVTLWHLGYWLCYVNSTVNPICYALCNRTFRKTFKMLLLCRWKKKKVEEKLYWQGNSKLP
Chain of Histamine H3 receptor (Q9Y5N1 whole entry): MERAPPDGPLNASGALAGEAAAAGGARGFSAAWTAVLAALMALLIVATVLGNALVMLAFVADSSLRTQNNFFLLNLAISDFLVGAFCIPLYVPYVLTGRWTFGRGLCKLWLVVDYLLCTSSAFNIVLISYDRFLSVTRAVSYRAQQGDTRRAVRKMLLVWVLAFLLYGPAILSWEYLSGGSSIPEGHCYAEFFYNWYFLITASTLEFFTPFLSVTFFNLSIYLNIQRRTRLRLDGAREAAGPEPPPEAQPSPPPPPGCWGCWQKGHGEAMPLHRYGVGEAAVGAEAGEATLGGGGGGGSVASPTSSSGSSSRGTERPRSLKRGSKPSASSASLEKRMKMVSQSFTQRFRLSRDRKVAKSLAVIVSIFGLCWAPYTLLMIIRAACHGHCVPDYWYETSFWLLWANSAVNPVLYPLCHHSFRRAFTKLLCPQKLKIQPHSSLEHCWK
Chain of 5-hydroxytryptamine receptor 2B (P41595 whole entry): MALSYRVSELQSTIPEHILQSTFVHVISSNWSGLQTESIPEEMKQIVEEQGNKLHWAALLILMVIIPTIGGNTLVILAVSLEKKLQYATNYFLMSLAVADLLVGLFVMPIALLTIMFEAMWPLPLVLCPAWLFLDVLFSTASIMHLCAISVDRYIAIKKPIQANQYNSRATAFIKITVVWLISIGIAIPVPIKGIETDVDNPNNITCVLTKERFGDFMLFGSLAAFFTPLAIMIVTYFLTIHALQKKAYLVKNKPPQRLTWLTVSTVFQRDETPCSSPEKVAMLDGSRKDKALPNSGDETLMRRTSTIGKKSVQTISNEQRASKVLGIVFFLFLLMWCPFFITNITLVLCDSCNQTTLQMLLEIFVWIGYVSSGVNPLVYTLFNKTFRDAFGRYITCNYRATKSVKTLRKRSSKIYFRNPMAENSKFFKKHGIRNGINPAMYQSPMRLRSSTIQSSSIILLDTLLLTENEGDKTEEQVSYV
Chain of D(1A) dopamine receptor (P21728 whole entry): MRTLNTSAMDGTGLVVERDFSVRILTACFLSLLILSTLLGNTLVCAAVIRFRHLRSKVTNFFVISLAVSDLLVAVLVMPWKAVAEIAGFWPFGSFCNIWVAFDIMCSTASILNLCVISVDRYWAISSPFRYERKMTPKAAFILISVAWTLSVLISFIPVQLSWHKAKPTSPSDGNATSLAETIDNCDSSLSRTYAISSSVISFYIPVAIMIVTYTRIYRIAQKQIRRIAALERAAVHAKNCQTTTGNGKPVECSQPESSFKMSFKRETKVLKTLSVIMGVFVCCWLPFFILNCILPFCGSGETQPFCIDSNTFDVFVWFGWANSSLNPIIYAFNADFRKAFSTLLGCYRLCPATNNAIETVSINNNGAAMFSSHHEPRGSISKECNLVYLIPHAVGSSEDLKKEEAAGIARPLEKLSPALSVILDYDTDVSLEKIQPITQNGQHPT
Chain of Alpha-2B adrenergic receptor (P18089 whole entry): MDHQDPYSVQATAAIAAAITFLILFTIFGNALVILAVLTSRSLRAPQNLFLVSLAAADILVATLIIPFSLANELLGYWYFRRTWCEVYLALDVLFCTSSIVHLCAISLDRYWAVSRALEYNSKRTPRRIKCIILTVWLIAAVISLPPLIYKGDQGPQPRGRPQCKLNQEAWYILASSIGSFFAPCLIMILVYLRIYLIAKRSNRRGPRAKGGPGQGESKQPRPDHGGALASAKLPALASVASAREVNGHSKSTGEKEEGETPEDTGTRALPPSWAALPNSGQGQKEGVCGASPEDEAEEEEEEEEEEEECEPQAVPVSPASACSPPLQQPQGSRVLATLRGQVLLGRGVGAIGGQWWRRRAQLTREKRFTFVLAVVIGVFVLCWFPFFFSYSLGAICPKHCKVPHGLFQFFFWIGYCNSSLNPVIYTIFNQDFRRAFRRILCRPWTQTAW
Chain of Muscarinic acetylcholine receptor M2 (P08172 whole entry): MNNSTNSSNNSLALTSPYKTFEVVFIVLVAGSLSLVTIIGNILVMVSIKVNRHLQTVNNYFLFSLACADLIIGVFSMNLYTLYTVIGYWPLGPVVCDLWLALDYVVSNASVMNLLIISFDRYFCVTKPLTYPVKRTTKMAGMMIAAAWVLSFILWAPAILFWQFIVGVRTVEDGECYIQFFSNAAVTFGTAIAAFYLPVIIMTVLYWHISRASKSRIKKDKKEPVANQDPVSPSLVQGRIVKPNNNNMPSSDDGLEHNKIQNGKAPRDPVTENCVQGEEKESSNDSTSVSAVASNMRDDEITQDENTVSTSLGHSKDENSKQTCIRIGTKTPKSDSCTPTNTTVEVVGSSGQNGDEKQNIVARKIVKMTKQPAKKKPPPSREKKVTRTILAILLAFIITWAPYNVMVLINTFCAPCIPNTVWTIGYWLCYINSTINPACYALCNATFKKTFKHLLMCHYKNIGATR
Chain of Sigma intracellular receptor 2 (Q5BJF2 whole entry): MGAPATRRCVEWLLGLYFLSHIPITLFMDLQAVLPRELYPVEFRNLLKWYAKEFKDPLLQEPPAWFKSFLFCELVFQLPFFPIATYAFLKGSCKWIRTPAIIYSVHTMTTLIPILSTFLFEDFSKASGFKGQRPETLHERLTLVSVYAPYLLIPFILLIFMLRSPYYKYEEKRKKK

Regarding `CCN(CC)CCCC(C)Nc1cnc(C(=O)Nc2cc(F)cc3cccnc23)cn1` (stereo not given), the inhibition constant Ki is 386 nM in data set [1]; 373 nM in data set [2]; 717 nM in [4]; 750 nM at Histamine H2 receptor; 5470 nM at D(1A) dopamine receptor; 99 nM in data set [6]. For the same compound, the Ki in [7] amounted to 10 nM; in data set [8] it was 165 nM; on Histamine H3 receptor, 1200 nM; in data set [9], 2010 nM; at D(3) dopamine receptor, 726 nM; in [10], 713 nM. Also, the Ki was 2830 nM at D(1B) dopamine receptor; 279 nM in data set [11]; 673 nM in data set [12]; greater than 10000 nM in data set [13]; 743 nM in data set [14]; 1350 nM in [15]. Moreover, the half-life at 10 µM in data set [3] was greater than 60 min. For the same compound, in data set [5], the t1/2 is 45.3 min.
